Earlier results in patent US11648240B2, “Pharmaceutical composition comprising famotidine, lidocaine and melatonin” (Cellix Bio Private Limited, priority 2021, dated 2023).

Columns and labels:
[1] = system: human immunodeficiency virus; conditions: in-vitro studies
[2] = system: sars-cov-2; conditions: in-vitro studies
[3] = target: CYP1A2 (Homo sapiens, UniProt P05177); conditions: stated as believed, no test described
CYP1A2, sequence (P05177 whole entry, species assumed): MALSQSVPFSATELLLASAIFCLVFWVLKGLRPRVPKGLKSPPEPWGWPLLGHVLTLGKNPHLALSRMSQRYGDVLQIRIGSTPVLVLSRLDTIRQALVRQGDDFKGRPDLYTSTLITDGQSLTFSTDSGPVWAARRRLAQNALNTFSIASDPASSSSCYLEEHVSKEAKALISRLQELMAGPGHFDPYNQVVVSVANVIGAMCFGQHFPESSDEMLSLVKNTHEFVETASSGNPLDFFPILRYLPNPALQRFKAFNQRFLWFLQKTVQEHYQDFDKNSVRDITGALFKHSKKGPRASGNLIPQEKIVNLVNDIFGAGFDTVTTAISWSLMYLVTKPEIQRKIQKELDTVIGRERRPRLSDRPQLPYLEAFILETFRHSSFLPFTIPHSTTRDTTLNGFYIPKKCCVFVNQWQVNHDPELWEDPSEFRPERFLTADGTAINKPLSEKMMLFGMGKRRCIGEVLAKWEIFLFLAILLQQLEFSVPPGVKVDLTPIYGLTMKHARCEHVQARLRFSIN

NC(N)=Nc1nc(CSCCC(N)=NS(N)(=O)=O)cs1 [Famotidine]
human immunodeficiency virus replication [1]: inhibits
sars-cov-2 replication [2]: inhibits
metabolism through Cytochrome P450 system (CYP1A2) [3]: 25-30%
